Where two headings read alike, the source gives them in different places.
Test system: MCF-7 cells
Test: MTT proliferation assay in estrogen-dependent MCF-7 breast cancer cells
Type: cell-based
Conditions: for estrogenic activity relative to natural compound 1: comparison with coumestrol (compound 1)
Procedure: MCF-7 cells and MDA-MB-231 cells were maintained in Costar T75 flasks with Dulbeccos Modified Eagle Medium (DMEM) supplemented with 2 mM glutamine and 10% fetal bovine serum (Biological Industries Beit Haemek, LTD).
To deplete cells of estrogens, they were passaged for 1 week in phenol red-free DMEM supplemented with 10% estrogen-depleted calf serum (DCS/MEM) which was made by sequential treatment of calf serum with sulfatase and dextran-coated charcoal (Biological Industries Beit Haemek, LTD).
MCF-7 and MDA-MB-231 cells were plated in 96 well dishes (Costar) at approximately 5,000 cells/well and 2500 cells/well respectively in 100 ul medium. One day after plating (Day 0) 100 μl of the treatment media were added.
Final volume in each well was 200 μl. Each chemical was diluted to a final concentration of 10^−3M. At day 0 compounds 1 and 8b-8m (table 1) were diluted aside and 100 μl from each dilution were added to each well. The following dilution steps were performed: 2×10^−6M (4 μl of 10^−3M in 2 mL), 2×10^−7 M (200 μl of 2×10^−6M in 2 mL), 2×10^−8M (200 μl of 2×10^−7M in 2 mL) and 2×10^−9M (200 μl of 2×10^−8M in 2 mL).
Cell proliferation was quantified by colorimetric MTT assay. The use and validity of the MTT assay in MCF-7 cells is described by Martikainen et al.
Measurement of cell viability and proliferation were based on the reduction of tetrazolium salts using the MTT kit (Biological Industries Beit Haemek, LTD) according to the manufacturer instructions. The yellow tetrazolium MTT (3-(4,5-dimethylthiazolyl-2)-2,5-diphenyltetrazolium bromide) is reduced by metabolically active cells, in part by the action of dehydrogenase enzymes, to generate reducing equivalents such as NADH and NADPH. The resulting intracellular purple formazan can be solubilized and quantified by spectrophotometric means. The MTT Reagent yields low background absorbance values in the absence of cells. MTT assay was used to evaluate cell number in each well.

[1] = Homo sapiens, MCF7, MCF-7 breast cancer cells, read-out: IC50 value
[2] = Homo sapiens, MCF7, cell proliferation effect on MCF-7 cell line (estrogen dependent cells), MTT, NA = Not Active, read-out: IC50

Row | Compound | IC50 [1] [nM] | IC50 [2] [nM] | estrogenic activity relative to natural compound 1 | further results
1 | CC(=O)Nc1ccc2c(c1)oc1c3ccc(O)cc3oc(=O)c21 [Compound 8g] | 30 | 30 |  | 
2 | O=c1oc2cc(O)ccc2c2oc3ccc(O)cc3c12 [Compound 8f] |  |  | at least one order of magnitude less active | 
3 | O=c1oc2cc(O)ccc2c2oc3ccc(Br)cc3c12 [Compound 8i] | 107 | 107 |  | 
4 | O=c1oc2cc(O)ccc2c2oc3cc(O)ccc3c12 [Compound 1, coumestrol] |  |  |  | IC50 (cell proliferation effect on MCF-7 cell line (estrogen dependent cells), MTT, NA = Not Active, read-out: IC50): 73 nM
5 | O=c1oc2cc(O)ccc2c2oc3ccc4ccccc4c3c12 [Compound 8m, napthocoumestrol] | 180 | 180 |  | 
6 | O=c1oc2cc(O)ccc2c2oc3ccc(C(F)(F)F)cc3c12 [Compound 8l, 3-trifluoromethylcoumestrol] | 170 | 170 |  | 
7 | O=c1oc2cc(O)ccc2c2oc3cc(O)c(O)cc3c12 [Compound 8c, 8-hydroxycoumestrol] |  |  | at least one order of magnitude less active | 
8 | CCOC(=O)c1ccc2oc3c4ccc(O)cc4oc(=O)c3c2c1 [Compound 8k] | 58 | 58 |  | 
9 | O=c1oc2ccccc2c2oc3ccccc3c12 [Compound 8b] |  |  | at least one order of magnitude less active | 
10 | O=c1oc2ccccc2c2oc3cc(O)ccc3c12 [Compound 8d, 3-hydroxycoumestn] |  | 568 | at least one order of magnitude less active | proliferative effect on the MCF-7 cells (ER-positive breast cancer line MCF-7, result in words): did not showed any proliferative effect
11 | CC(=O)Nc1ccc2oc3c4ccc(O)cc4oc(=O)c3c2c1 [Compound 8h, 8-acetamidecoumestrol] | < 1 | 9 |  | 
12 | O=c1oc2cc(O)ccc2c2oc3ccc(F)cc3c12 [Compound 8j] |  | 220 |  | 

Reference: US20150336977A1 (B.G. NEGEV TECHNOLOGIES AND APPLICATIONS LTD., priority 2013, published 2015)
